# In patent publication US9675543B2, “Method of improving aging appearance of skin by modulation of WIPI-1” (Avon Products, Inc., priority 2012, dated 2017):
# System: WIPI-1
# Assay: WIPI-1 Screening, mRNA up-regulation in normal human keratinocytes (HEKa), Quantigene multiplex assay
# Assay type: cell-based
# Conditions: for HEKa Activity Level (percent up-regulation of WIPI-1 mRNA, scaled score): HEKa keratinocytes, 24 hours, vs vehicle control
# Method: A variety of botanical extract and synthetic compounds were tested for the ability to up-regulate WIPI-1. Normal human dermal fibroblasts or keratinocytes were cultured in 96-well tissue culture treated plates, containing appropriate culture medium. Stock solutions of actives were made in an appropriate vehicle (water/Ethanol/DMSO). Cells were treated with test material or respective vehicle control diluted in growth medium for 24 hours in a humidified 37° C. incubator with 10% CO2. The concentrations of each extract are provided based on the dry weight of the given plant extract, by which is meant the weight of the extract after volatile extraction solvents have been removed. After incubation, growth medium from each plate was removed and 100 μL of lysis buffer was added to the wells and placed in 37° C. incubator with 10% CO2 for 30 minutes. At the end of incubation, the cells were collected in freezer plates and placed in −80° C. freezer, until analysis. Changes in mRNA after treatment were analysed using Panomics Quantigene multiplex assay that employs a branched DNA technology, following manufacturer's instructions (Affymetrix, CA). Percent increase (up-regulation) in mRNA for the WIPI-1 were calculated by comparing the test results to the control. The percent up-regulation is converted to a scaled score: 0: 0-20%; +: 21-40%; ++: 41-60%; +++: 61-80%; ++++: >80%.
compound,measurement,setting,value
CCOCCCNC(=O)c1coc(CN(CCCOCC)C(=O)c2ccc(Cl)cc2)n1 [Analog 1],"HEKa Activity Level (percent up-regulation of WIPI-1 mRNA, scaled score)",concentration 0.001%,+ (+: 21-40%)
same,"HEKa Activity Level (percent up-regulation of WIPI-1 mRNA, scaled score)",concentration 0.01%,+ (+: 21-40%)
same,WIPI-1 within keratinocytes upregulated (in words),keratinocytes,upregulated
